Columns and labels:
HCV = details: chronically HCV infected patients; cited from earlier work
interferon-a (IFN-a) = details: healthy volunteers; oral; cited from earlier work
B16 tumors = assay: Syngeneic mouse melanoma model; assay type: in vivo, C57BL/6 mice; details: cyclophosphamide 100 mg/kg IP single dose
Protocol: Cancer cells were injected subcutaneously in right flank of each mouse, 1×10^4 cells in 0.1 ml PBS with 20% Matrigel. Treatment with the NTR001 was initiated on day 6 after injection of tumor cells. Tumor volume and survival were recorded every 3-4 days.

human TLR2 = target: T1, human TLR2 (Homo sapiens, UniProt O60603); assay: TLR ligand screening, NF-κB SEAP reporter in HEK293 cells expressing TLR2; assay type: cell-based; details: one concentration: Guanosine 100 uM, NTR001 10 uM, Inosine 100 uM; FIG. 2
T1 construct: expressed in transfected cells; host or cells: HEK293
T1 sequence (O60603 21-784): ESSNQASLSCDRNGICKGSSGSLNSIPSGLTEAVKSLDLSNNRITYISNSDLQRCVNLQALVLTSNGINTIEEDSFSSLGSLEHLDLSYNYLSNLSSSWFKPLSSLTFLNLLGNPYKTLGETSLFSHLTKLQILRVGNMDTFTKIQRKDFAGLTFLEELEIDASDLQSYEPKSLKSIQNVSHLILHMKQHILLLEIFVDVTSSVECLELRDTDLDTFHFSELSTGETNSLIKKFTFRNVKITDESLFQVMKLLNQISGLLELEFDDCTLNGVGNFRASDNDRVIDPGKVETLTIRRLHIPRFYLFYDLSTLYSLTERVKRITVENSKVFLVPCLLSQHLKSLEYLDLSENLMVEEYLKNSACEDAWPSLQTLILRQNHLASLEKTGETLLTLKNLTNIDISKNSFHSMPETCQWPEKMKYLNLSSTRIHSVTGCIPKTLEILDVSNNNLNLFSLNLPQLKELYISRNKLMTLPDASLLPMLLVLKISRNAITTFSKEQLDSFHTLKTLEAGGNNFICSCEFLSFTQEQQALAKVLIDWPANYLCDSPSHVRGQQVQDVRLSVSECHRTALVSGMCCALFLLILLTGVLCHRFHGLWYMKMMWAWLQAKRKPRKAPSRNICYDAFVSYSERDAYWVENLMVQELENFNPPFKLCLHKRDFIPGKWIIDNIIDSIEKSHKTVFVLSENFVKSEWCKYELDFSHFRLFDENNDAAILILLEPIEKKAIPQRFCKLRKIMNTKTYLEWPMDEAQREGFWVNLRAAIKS
Protocol: (§1) TLR stimulation is tested by assessing NF-κB activation in HEK293 cells expressing a given TLR. The Secreted Embryonic Alkaline Phosphatase (SEAP) reporter is under the control of a promoter inducible by the transcription factor NF-κB. This reporter gene allows the monitoring of signaling through the TLR, based on the activation of NF-κB. The compounds are evaluated at one concentration and compared to control ligands. This step is performed in triplicate.

human TLR4 = target: T2, human TLR4 (Homo sapiens, UniProt O00206); assay: TLR ligand screening, NF-κB SEAP reporter in HEK293 cells expressing TLR4; assay type: cell-based; details: one concentration: Guanosine 100 uM, NTR001 10 uM, Inosine 100 uM; FIG. 2
T2 construct: expressed in transfected cells; host or cells: HEK293
T2 sequence (O00206 24-839): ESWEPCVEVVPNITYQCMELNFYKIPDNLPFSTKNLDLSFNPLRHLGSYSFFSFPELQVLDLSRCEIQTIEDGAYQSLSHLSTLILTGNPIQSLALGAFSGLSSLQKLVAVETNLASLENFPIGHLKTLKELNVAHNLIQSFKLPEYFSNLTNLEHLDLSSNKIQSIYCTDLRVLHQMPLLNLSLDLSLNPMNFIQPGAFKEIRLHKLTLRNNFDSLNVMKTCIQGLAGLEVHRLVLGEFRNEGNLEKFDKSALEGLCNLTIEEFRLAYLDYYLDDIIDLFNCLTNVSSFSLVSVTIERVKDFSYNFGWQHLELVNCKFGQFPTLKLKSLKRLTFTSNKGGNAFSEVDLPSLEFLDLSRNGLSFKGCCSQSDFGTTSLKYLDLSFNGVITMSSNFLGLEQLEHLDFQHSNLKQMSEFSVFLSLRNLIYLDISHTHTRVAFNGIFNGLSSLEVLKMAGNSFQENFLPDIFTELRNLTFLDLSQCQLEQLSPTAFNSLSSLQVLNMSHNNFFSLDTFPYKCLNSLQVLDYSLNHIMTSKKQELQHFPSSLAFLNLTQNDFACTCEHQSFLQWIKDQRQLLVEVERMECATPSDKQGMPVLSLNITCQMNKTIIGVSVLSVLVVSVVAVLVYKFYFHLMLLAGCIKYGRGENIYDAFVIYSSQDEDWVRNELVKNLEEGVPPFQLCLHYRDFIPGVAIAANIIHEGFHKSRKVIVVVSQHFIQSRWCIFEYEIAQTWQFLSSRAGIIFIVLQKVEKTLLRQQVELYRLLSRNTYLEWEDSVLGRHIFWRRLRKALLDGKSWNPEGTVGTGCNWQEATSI
T2 sequence (Q9Y6Y9 17-160 partner limits assumed): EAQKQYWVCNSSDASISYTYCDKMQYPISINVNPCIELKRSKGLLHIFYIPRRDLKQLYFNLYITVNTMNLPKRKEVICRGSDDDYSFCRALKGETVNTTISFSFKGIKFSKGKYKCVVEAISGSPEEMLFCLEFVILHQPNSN
Protocol: as §1

[1] = test system: L. monocytogenes (ATCC Strain35152, hemolytic substrain); assay: Mouse model of L. monocytogenes infection; assay type: in vivo; details: Balb/c mice infected i.v. with 1×10^6 CFU; treatments per Table 3; FIGS. 7 and 9
tetanus toxoid vaccine = assay: Tetanus toxoid vaccine efficacy study (adjuvant) in mice; assay type: in vivo; details: compared to vehicle treated group
Protocol: Tetanus toxoid (TT) was used to vaccinate mice thrice, two weeks apart. Mice were treated by oral administration of compounds NTR001 and NTR002 and serum was collected at various time points for antibody titer and interferon-g analysis. Mice in Groups 2-6 (Table 2) are vaccinated subcutaneously with 0.1 ml tetanus toxoid vaccine on DAYS 0, 14 and 28. Mice in Group 1 (Table 1) received no vaccine. Antibody titers for DAYS 38 are determined by ELISA using tetanus toxoid coated microtiter plates and anti-mouse conjugate. Sera from DAY 30 are assayed by ELISA for interferon-g.

## CC(=O)O[C@@H]1C[C@@H](CO)O[C@H]1n1c(=O)sc2cnc(N)nc21 [ANA773]
HCV
  HCV RNA: dose-dependent reduction
interferon-a (IFN-a)
  induction of endogenous interferon-a (IFN-a): induce endogenous interferon-a (IFN-a) of multiple subtypes

## O=P1(N(CCCl)CCCl)NCCCO1 (centres unmarked) [Cycicophosphamide, Cyclophosphamide]
B16 tumors
  survival: 30%

## Nc1nc2c(ncn2[C@@H]2O[C@H](CO)[C@@H](O)[C@H]2O)c(=O)[nH]1 [Guanosine]
Human TLR2
  stimulatory effect on human TLR2 (NF-κB activation): significant stimulatory effect
Human TLR4
  stimulatory effect on human TLR4 (NF-κB activation): significant stimulatory effect

## O=c1[nH]cnc2c(CN3C[C@H](CO)[C@@H](O)C3)c[nH]c12 [NTR002, 1,5-dihydro-7-[[(3R,4R)-3-hydroxy-4-(hydroxymethyl)pyrrolidin-1-yl]methyl]-4H-pyrrolo[3,2-d]pyrimidin-4-one]
[1]
  weight loss: significant decrease
Tetanus toxoid vaccine; day 30, ELISA, high dose group 60 mg/kg p.o., FIG. 4
  serum interferon-g: elevated
Tetanus toxoid vaccine; day 38, ELISA, p.o. 30 mg/kg (6 days of treatment) and 60 mg/kg (3 days of treatment), FIG. 3
  serum tetanus toxoid antibody titers: significantly elevated

— patent publication US9616129B2, “Compositions and methods for potentiating immune response, enhancing immunotherapy, and increasing vaccine potency” (Nitor Therapeutics, priority 2013, dated 2017)
